The record followed here is ChEMBL document CHEMBL1201862, “PubChem BioAssay data set” (2004).

Active and inactive are the calls of the source. Bounds are passed on as bounds.

Experiment [1] addresses T1, Neuropeptides B/W receptor type 1 (Homo sapiens, UniProt P48145).
T1 sequence (P48145 whole entry): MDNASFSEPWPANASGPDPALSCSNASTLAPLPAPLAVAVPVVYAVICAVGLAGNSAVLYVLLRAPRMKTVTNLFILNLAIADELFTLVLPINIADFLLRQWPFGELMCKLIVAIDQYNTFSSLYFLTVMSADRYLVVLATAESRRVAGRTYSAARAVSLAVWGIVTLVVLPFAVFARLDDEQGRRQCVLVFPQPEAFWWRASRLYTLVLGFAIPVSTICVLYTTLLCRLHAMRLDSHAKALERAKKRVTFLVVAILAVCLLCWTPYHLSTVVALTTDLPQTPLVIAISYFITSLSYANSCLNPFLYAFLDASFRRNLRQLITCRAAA
In words: Fluorescence-based dose response cell-based high throughput screening assay to identify antagonists of the G-protein coupled receptor 7 (GPR7). [Related pubchem assays: 1952 (Screening assay (GPR7 antagonists).), 1880 (Summary AID.)]. It is filed as functional.

The target of experiment [2] is Melanin-concentrating hormone receptor 1 (Homo sapiens, UniProt Q99705). In words: Fluorescence-based counterscreen for antagonists of the G-protein coupled receptor 7 (GPR7): cell-based high throughput dose response assay to identify antagonists of the melanin-concentrating hormone receptor 1 (MCHR1). In kind it is functional.
The target of another experiment is Estrogen receptor (Homo sapiens, UniProt P03372). In words: ERα coactivator recruitment enhancers – biochemical, TR-FRET, ERα LBD, dose response (AID 737). A general note: TR-FRET usually uses a lanthanide donor and a delayed reading to cut background.
The target of another experiment is 14-3-3 protein gamma (Homo sapiens, UniProt P61981). In words: modulators of 14-3-3 gamma client binding – dose response (AID 711). It is filed as functional.
Experiment [3] addresses T2, Bcl-2-related protein A1 (Mus musculus, UniProt Q07440).
T2 sequence (Q07440 whole entry): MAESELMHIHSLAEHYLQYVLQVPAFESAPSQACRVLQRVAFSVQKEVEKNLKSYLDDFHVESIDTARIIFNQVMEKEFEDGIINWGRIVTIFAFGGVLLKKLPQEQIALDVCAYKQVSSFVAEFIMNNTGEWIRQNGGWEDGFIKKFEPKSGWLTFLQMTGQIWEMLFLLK
In words: displacement of Bid BH3 peptide from Bfl-1 – biochemical, fluorescence polarization, FITC-Bid, mouse, primary screen (AID 432). A general note: Fluorescence polarisation rises when a labelled molecule tumbles more slowly, as on binding a larger partner.

For experiment [4], the target named is T2, Bcl-2-related protein A1. In words: small-molecule antagonists of Bfl-1/BH3 interaction – biochemical, TR-FRET, mouse Bfl-1, confirmation (AID 621).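 Also: TR-FRET binding of GST-Bfl-1 to FITC-labelled Bid peptide via terbium antibody.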
Experiment [5] concerns the target E3 ubiquitin-protein ligase Mdm2 (Homo sapiens, UniProt Q00987). In words: MDM2-luc reporter signal enhancers, multi-concentration potency testing, MDM2 ubiquitin-protein ligase inhibitor program, whole-cell format, luminescence detection, 384-well microplate (AID 1394).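 Also: MDM2 E3 inhibitors raise luminescence so EC50 is for signal enhancement.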 In kind it is functional.
The target in experiment [6] is T3, High affinity choline transporter 1 (Homo sapiens, UniProt Q9GZV3).
T3 sequence (Q9GZV3 whole entry): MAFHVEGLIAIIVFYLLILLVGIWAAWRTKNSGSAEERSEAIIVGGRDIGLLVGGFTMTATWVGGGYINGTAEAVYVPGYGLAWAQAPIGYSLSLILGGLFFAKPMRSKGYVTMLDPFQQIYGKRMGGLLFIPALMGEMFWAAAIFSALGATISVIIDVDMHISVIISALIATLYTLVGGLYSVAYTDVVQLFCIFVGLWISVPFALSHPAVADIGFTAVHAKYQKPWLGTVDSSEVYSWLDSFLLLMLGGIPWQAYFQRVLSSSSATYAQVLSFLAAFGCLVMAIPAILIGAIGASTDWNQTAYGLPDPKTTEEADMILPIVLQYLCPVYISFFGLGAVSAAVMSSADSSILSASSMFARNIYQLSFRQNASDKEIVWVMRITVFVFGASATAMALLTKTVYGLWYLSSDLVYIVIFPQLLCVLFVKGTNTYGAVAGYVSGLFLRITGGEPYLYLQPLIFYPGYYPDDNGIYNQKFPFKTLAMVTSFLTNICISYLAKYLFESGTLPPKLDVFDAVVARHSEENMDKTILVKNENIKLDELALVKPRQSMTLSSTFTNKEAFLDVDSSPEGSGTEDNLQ
In words: human choline transporter blockers, potency – cell-based, 5-point CRC, membrane potential dye, dose response (AID 504840). It is filed as functional.

Experiment [7] deals with T3, High affinity choline transporter 1. In words: human choline transporter blockers, potency – cell-based, 10-point CRC, membrane potential dye, dose response (AID 588401).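 Also: membrane potential dye fluorescence of choline-evoked depolarization via CHT.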 It is filed as functional.
The subject of another experiment is Vero. In words: Vero cell viability after compound exposure – synthesized analogs, set II, cytotoxicity control for West Nile virus antiviral project, SAR follow-up (AID 2402). In kind it is functional. The note with it: Chlorocebus sabaeus.
A short description of experiment [8]: decrease of insulin promoter-GFP reporter – imaging, high-content screening, mouse beta cells (AID 1628). The note with it: MIN6. It is filed as functional.
Experiment [9] deals with BJ. In words: BJ-TERT fibroblast viability loss – cell-based, RAS-independent, luminescence, dose response (AID 1933). It is filed as functional. The note with it: Homo sapiens.
Experiment [10] is described as follows: MIN6 cell viability loss – mouse insulinoma, cytotoxicity control, dose response (AID 2122).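 Also: confirmatory high-throughput counterscreen run to flag cytotoxic compounds.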 In kind it is functional.
Experiment [11] relates to BJ. In words: cells. It is filed as functional, cell-based. The note with it: Homo sapiens.
Experiment [12] in a line: Luminescence-based dose response cell-based high throughput screening assay for cytotoxic compounds using the IEC-6 intestinal epithelial cell line. [Related pubchem assays: 1858 (Summary AID.), 1825 (Counterscreen.), 1907 (Confirmation screen.)]. In kind it is functional. In general terms: A counterscreen serves to expose hits that act by an unwanted route or on another target.

The subject of experiment [13] is BJ. In words: BJ-TERT-LT-ST fibroblast viability loss – cell-based, RAS-independent, luminescence, dose response (AID 1935).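 Also: BJ fibroblasts immortalized with TERT plus LT and ST oncogenes.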 The note with it: Homo sapiens. It is filed as functional.
Experiment [14] is described as follows: DRD fibroblast viability loss – cell-based, non-viral oncogenic, luminescence, dose response (AID 1934). The note with it: Homo sapiens. In kind it is functional.
Experiment [15] deals with BJ. In words: growth inhibition of engineered Ras-driven BJ cells – cell-based, alamar blue fluorescence, cherrypicked samples, dose response (AID 2631).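 Also: confirmatory dose-response assay in RAS-dependent BJ fibroblasts engineered with TERT, LT and ST, with cytotoxicity read by fluorescence.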 In kind it is functional. The note with it: Homo sapiens.
The test system of the next experiment is INS1. In words: INS-1E survival protection against cytokine death – cell-based, luminescence, retest, dose response (AID 449756).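 Also: cell death triggered by IL-1 beta plus TNF-alpha plus IFN-gamma mixture; protective hits raise ATP signal compared with cytokine alone wells.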 The note with it: Rattus norvegicus. It is filed as functional.
The next experiment addresses Paired box protein Pax-8 (Homo sapiens, UniProt Q06710). In words: PAX8 transcriptional activity inhibition in RMG-I – RMG-I cells, luciferase, cherry-pick, dose response (AID 687027).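 Also: luciferase reporter driven by Pax8 target thyroperoxidase promoter measured by SteadyGlo luminescence.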 In kind it is functional, cell-based.

Sequence of Melanin-concentrating hormone receptor 1 (Q99705 whole entry, the tested form may be a part): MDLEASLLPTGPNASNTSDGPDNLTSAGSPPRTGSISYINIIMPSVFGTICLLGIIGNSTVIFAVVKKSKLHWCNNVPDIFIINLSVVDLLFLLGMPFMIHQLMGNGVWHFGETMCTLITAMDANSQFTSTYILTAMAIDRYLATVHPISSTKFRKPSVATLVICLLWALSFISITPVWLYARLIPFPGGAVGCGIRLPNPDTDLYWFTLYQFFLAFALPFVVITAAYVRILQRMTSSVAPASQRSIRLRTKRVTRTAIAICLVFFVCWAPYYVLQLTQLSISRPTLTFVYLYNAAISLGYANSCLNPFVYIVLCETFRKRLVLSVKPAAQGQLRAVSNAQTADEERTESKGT
Sequence of Paired box protein Pax-8 (Q06710 whole entry): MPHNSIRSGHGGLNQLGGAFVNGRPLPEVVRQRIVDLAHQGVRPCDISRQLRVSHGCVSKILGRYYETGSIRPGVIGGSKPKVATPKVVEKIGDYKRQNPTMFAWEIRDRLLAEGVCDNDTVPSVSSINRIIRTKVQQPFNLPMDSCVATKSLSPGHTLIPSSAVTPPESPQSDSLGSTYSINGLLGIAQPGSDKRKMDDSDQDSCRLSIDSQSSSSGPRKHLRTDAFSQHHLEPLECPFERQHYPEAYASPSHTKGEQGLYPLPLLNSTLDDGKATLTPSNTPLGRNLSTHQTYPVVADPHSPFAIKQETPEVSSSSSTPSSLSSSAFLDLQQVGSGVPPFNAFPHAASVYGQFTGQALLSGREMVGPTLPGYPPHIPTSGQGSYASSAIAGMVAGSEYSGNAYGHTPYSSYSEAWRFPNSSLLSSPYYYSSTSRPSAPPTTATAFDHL
Sequence of E3 ubiquitin-protein ligase Mdm2 (Q00987 whole entry): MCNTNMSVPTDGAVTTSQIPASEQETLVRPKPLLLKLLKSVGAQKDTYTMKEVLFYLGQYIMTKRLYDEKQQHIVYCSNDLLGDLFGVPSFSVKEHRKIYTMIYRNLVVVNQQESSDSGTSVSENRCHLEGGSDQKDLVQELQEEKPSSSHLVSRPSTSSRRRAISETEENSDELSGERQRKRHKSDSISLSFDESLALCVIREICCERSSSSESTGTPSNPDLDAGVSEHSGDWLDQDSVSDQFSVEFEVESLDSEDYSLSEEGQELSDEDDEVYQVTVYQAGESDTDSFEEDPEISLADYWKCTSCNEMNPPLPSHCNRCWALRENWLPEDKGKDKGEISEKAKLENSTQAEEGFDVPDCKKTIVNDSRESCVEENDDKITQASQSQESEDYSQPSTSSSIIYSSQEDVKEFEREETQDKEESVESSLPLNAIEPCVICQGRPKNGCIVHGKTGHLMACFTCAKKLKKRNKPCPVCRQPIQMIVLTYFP
Sequence of Estrogen receptor (P03372 whole entry, the tested form may be a part): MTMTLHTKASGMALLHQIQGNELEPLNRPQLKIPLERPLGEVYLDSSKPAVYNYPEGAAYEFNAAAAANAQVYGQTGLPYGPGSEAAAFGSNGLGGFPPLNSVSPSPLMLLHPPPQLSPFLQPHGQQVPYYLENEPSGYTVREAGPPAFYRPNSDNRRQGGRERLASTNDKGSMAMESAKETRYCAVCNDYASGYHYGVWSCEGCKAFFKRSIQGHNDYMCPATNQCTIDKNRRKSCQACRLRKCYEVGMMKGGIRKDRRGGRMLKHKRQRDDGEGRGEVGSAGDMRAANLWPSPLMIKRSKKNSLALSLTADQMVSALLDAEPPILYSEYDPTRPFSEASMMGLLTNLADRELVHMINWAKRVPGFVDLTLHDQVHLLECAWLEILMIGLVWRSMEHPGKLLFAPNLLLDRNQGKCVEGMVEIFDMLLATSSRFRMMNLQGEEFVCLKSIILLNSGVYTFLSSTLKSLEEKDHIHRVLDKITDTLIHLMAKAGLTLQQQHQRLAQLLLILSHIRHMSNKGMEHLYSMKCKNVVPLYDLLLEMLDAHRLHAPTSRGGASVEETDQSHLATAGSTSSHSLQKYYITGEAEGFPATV
Sequence of 14-3-3 protein gamma (P61981 whole entry): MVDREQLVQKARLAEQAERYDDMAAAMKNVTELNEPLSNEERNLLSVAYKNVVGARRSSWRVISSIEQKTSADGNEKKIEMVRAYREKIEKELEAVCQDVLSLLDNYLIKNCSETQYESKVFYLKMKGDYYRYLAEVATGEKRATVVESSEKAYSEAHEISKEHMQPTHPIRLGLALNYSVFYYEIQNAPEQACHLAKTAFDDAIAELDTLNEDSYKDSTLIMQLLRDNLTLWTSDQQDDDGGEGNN

As to `CCC(C)(C(=O)NC1CCCC1)N(Cc1ccco1)C(=O)c1ccc2c(c1)OCO2` (stereo not given), the IC50 in experiment [1] and in [2] was > 43800 nM (not active) in each case.

On to `COCCCn1c2nc3ccccc3nc2c2c(=O)n(-c3ccccc3OC)c(C)nc21`, for which the EC50 on Estrogen receptor is 12700 nM (not active).

`CN1C(=O)C(Cc2c[nH]c3ccccc23)C(=O)N(C)C1=O`: at 14-3-3 protein gamma, the IC50 is > 50000 nM (not active).

Regarding `Cc1cc(C)c2c3c(c(-c4ccccc4)n2n1)c(=O)n(C)c(=O)n3C`, the IC50 at Bcl-2-related protein A1 [3] and against Bcl-2-related protein A1 [4] was > 100000 nM (not active) each time.

With `CCOC(=O)c1sc(=S)n(-c2ccccc2)c1N(C(C)=O)C(C)=O`, the EC50 in experiment [5] is reported as 290 nM (not active). In addition, the IC50 is 8980 nM (active) in experiment [6] and 5010 nM (active) in experiment [7].

On to `CC1CC(C)CN(C(=O)CSc2nc3ccccc3c(=O)n2-c2ccc(F)cc2)C1` (stereo not given), for which the CC50 with Vero is > 100000 nM (active).

As for `CCOc1ccc(C(=O)c2cc([N+](=O)[O-])ccc2N2CCOCC2)cc1`, the IC50 in experiment [8] was 263 nM (active); in experiment [10], < 250 nM (active); in [12] it was 55.8 nM (active). In addition, the EC50 is 406 nM (active) in the experiment with BJ [9]; 632 nM (active) in the experiment on BJ [11]; 401 nM (inconclusive) in the experiment on BJ [13]; 358 nM (active) in experiment [14]; < 104 nM (active) in the experiment on BJ [15]. Also, the values for the AC50 in the experiment on INS1 and at Paired box protein Pax-8 were 775 nM (active) and < 260 nM (active), respectively.

As a reminder, the IC50 is the concentration needed to halve the response being measured. In general, EC50 refers to the concentration giving half of the maximal effect. What is called CC50 is the concentration that lowers cell viability or growth by half. As a reminder, the AC50 is the concentration at which the activity in the assay is half-maximal.
